Experimental data taken from patent publication US4780313A (Takeda Chemical Industries, Ltd., priority 1985, dated 1988).

What was measured:
[1] = system: Meth-A fibrosarcoma cells (Meth-A tumor cells); test: Antitumor activity, subcutaneous administration, Meth-A tumor-bearing mice (Examples 1 and 4); format: in vivo, female BALB/c mice; settings: Table 4, day 21
Experimental: (§1) Meth-A fibrosarcoma cells (Meth-A tumor cells) (1×10^6 cells) were transplanted into each female BALB/c mice (weighing about 20 g) subcutaneously in the flank using a syringe. Seven days after tumor transplantation, mice in which tumor was larger than a certain defined size were chosen and grouped and administration of the test agent was started. The agent was administered subcutaneously in the opposite flank relative to the tumor transplantation site once daily for 10 consecutive days. Each ingredient of the test agent was dissolved in physiological saline (solvent) supplemented in a form of a single preparation with 5% of normal mouse serum in a concentration such that the dose of the solution amounted to 0.1 ml/20 g of mouse body weight. The antitumor effect was evaluated by measuring the tumor weight in each mouse 21 days after tumor transplantation, determining the average tumor weight for each group and calculating the tumor weight ratio (T/C %) between the dosed group (T; 5 animals per group) and the untreated control group (C; 5 to 10 animals per group). The daily dose of each ingredients was expressed in terms of the ingredient weight (mcg) per mouse.

[2] = Body weight gain of tumor-bearing mice, subcutaneous administration (Examples 1 and 4); format: in vivo, female BALB/c mice; settings: Table 4; TMD-5 200 mcg/mouse/day alone s.c.
Experimental: as §1

[3] = TMD-5 200 mcg/mouse/day alone s.c. x10 days
[4] = TMD-76 200 mcg/mouse/day alone s.c. x10 days

| Compound | Tumor weight (mg) Mean ± SD [1, 3] | Tumor weight ratio (T/C %) [1, 3] | Body weight gain (g) (day 7 to day 21) [2] | Tumor weight (mg) Mean ± SD [1, 4] | Tumor weight ratio (T/C %) [1, 4] |
| --- | --- | --- | --- | --- | --- |
| CC(=O)N[C@H]1C(O)O[C@H](CO)[C@@H](O)[C@@H]1O[C@H](C)C(=O)NC(C)(C)C(=O)N[C@H](CCC(=O)O)C(N)=O (stereo partly drawn) [TMD-5, N-acetylmuramylaminoisobutyryl-D-isoglutamine] | 5,662 ± 1,097 mg | 99% | 3.0 g |  |  |
| COC(=O)CC[C@@H](NC(=O)[C@@H](NC(=O)[C@@H](C)O[C@H]1[C@H](O)[C@@H](COC(=O)CCC2=C(C)C(=O)C(OC)=C(OC)C2=O)OC(O)[C@@H]1NC(C)=O)C(C)C)C(N)=O (stereo partly drawn) [TMD-76, 6-0-[3-(2,3-dimethoxy-5-methyl-1,4-benzoquinon-6-yl)propionyl]-N-acetylmuramyl-L-valyl-D-isoglutamine methyl ester] |  |  |  | 5,550 ± 1,776 mg | 97% |
